Measurements from ChEMBL document CHEMBL6115028, “An Amazing 30-Year Journey around the DABO Family: A Medicinal Chemistry Lesson on a Versatile Class of Non-nucleoside HIV-1 Reverse Transcriptase Inhibitors” (J Med Chem, 2025).
In brackets after ≈: the same amount, converted by molar mass.

Tests used:
[1] = system: Human immunodeficiency virus 1; assay: Antiviral activity against HIV-1 IIIB infected in human MT2 cells assessed as inhibition of viral growth; assay type: functional, organism-based; settings: Human immunodeficiency virus 1, IIIB
MT2 = assay: Cytotoxicity against human MT2 cells assessed as reduction in cell growth; assay type: functional, cell-based
[2] = Cytotoxicity against human PBMC cells; assay type: toxicity, cell-based
[3] = system: Human immunodeficiency virus 1; assay: Antiviral activity against HIV-1 WAN infected in human […] cells at 0.03 MOI assessed as reduction in viral replication incubated for 2 hrs by ELISA analysis; assay type: functional, organism-based; settings: Human immunodeficiency virus 1, WAN, C8166, 2 h
[4] = system: Human immunodeficiency virus 1; assay: Antiviral activity against HIV-1 NL4-3 harboring reverse transcriptase K103N mutant infected in human C8166 cells assessed as reduction in virus-induced cytopathic effect measured for 2 hrs by ELISA analysis; assay type: functional, organism-based; settings: Human immunodeficiency virus 1, NL4-3, C8166, 2 h
C8166 = assay: Cytotoxicity against human C8166 cells assessed as reduction in cell growth measured after 3 days by MTT assay; assay type: functional; settings: C8166, 72 h, time 3 day
[5] = system: Human immunodeficiency virus 1; assay: Antiviral activity against HIV-1 MN infected in human […] cells at 0.03 MOI assessed as reduction in viral replication incubated for 2 hrs by ELISA analysis; assay type: functional, organism-based; settings: Human immunodeficiency virus 1, MN, C8166, 2 h
[6] = system: Human immunodeficiency virus 1; assay: Antiviral activity against HIV-1 NL4-3 harboring reverse transcriptase V106A mutant infected in human C8166 cells assessed as reduction in virus-induced cytopathic effect measured for 2 hrs by ELISA analysis; assay type: functional, organism-based; settings: Human immunodeficiency virus 1, NL4-3, C8166, 2 h
[7] = molecular target: T1, Human immunodeficiency virus type 1 reverse transcriptase (Human immunodeficiency virus 1, UniProt Q72547); assay: Inhibition of HIV-1 Reverse transcriptase
[8] = system: Human immunodeficiency virus 1; assay: Antiviral activity against HIV-1 NL4-3 harboring reverse transcriptase V108I mutant infected in human C8166 cells assessed as reduction in virus-induced cytopathic effect measured for 2 hrs by ELISA analysis; assay type: functional, organism-based; settings: Human immunodeficiency virus 1, NL4-3, C8166, 2 h
[9] = system: Human immunodeficiency virus 1; assay: Antiviral activity against HIV-1 NL4-3 harboring reverse transcriptase Y181C mutant infected in human C8166 cells assessed as reduction in virus-induced cytopathic effect measured for 2 hrs by ELISA analysis; assay type: functional, organism-based; settings: Human immunodeficiency virus 1, NL4-3, C8166, 2 h
[10] = system: Human immunodeficiency virus 1; assay: Antiviral activity against HIV-1 A17 infected in human […] cells at 0.03 MOI assessed as reduction in viral replication incubated for 2 hrs by ELISA analysis; assay type: functional, organism-based; settings: Human immunodeficiency virus 1, A17, C8166, 2 h
[11] = system: Human immunodeficiency virus 1; assay: Antiviral activity against HIV-1 IIIB infected in human […] cells at 0.03 MOI assessed as reduction in viral replication incubated for 2 hrs by ELISA analysis; assay type: functional, organism-based; settings: Human immunodeficiency virus 1, IIIB, C8166, 2 h
[12] = Cytotoxicity against human PBMC cells assessed as reduction in cell growth measured after 3 days by MTT assay; assay type: functional; settings: 72 h, time 3 day
[13] = system: Human immunodeficiency virus 1; assay: Antiviral activity against HIV-1 TC-2 infected in human […] cells at 0.03 MOI assessed as reduction in viral replication incubated for 2 hrs by ELISA analysis; assay type: functional, organism-based; settings: Human immunodeficiency virus 1, TC-2, C8166, 2 h
[14] = system: Human immunodeficiency virus 1; assay: Antiviral activity against HIV-1 KM018 infected in human […] cells at 0.03 MOI assessed as reduction in viral replication incubated for 2 hrs by ELISA analysis; assay type: functional, organism-based; settings: Human immunodeficiency virus 1, KM018, C8166, 2 h
MT4 = assay: Cytotoxicity against human MT4 cells assessed as reduction in cell growth measured after 3 days by MTT assay; assay type: functional; settings: MT4, 72 h, time 3 day
[15] = system: Human immunodeficiency virus 1; assay: Antiviral activity against wild type HIV-1 NL4-3 harboring reverse transcriptase infected in human C8166 cells assessed as reduction in virus-induced cytopathic effect measured for 2 hrs by ELISA analysis; assay type: functional, organism-based; settings: Human immunodeficiency virus 1, NL4-3, C8166, 2 h
[16] = Solubility in water; assay type: physicochemical
[17] = system: Human immunodeficiency virus 1; assay: Antiviral activity against HIV-1 NL4-3 harboring reverse transcriptase V106M mutant infected in human C8166 cells assessed as reduction in virus-induced cytopathic effect measured for 2 hrs by ELISA analysis; assay type: functional, organism-based; settings: Human immunodeficiency virus 1, NL4-3, C8166, 2 h
[18] = system: Human immunodeficiency virus 1; assay: Antiviral activity against HIV1 harboring Y188H mutant infected in MT4 cells assessed as virus-induced cytopathicity treated for 5 days by MTT assay; assay type: functional, organism-based; settings: Human immunodeficiency virus 1, MT4, 120 h
[19] = system: Human immunodeficiency virus 1; assay: Antiviral activity against HIV-1 harboring L100I mutant infected in human MT4 cells assessed as virus-induced cytopathicity treated for 5 days by MTT assay; assay type: functional, organism-based; settings: Human immunodeficiency virus 1, MT4, 120 h
[20] = system: Human immunodeficiency virus 1; assay: Antiviral activity against HIV1 harboring Y181C mutant infected in human MT4 cells; assay type: functional, organism-based; settings: Human immunodeficiency virus 1, MT4
[21] = system: Human immunodeficiency virus 1; assay: Antiviral wild type activity against HIV-1 Ba-L infected in human TZM-bl cells assessed as reduction in virus-induced cytopathic effect incubated for 3 days by MTT assay; assay type: functional, organism-based; settings: Human immunodeficiency virus 1, Ba-L, 72 h
[22] = system: Human immunodeficiency virus 1; assay: Antiviral wild type activity against HIV-1 IIIB infected in human C8166 cells assessed as reduction in virus-induced cytopathic effect incubated for 3 days by MTT assay; assay type: functional, organism-based; settings: Human immunodeficiency virus 1, IIIB, C8166, 72 h
[23] = system: Human immunodeficiency virus 1; assay: Antiviral wild type activity against HIV-1 TC-1 infected in human PBMC cells assessed as reduction in virus-induced cytopathic effect incubated for 3 days by MTT assay; assay type: functional, organism-based; settings: Human immunodeficiency virus 1, TC-1, PBMC, 72 h
[24] = system: Human immunodeficiency virus 1; assay: Antiviral wild type activity against HIV-1 WAN infected in human PBMC cells assessed as reduction in virus-induced cytopathic effect incubated for 3 days by MTT assay; assay type: functional, organism-based; settings: Human immunodeficiency virus 1, WAN, 72 h
[25] = system: Human immunodeficiency virus 1; assay: Antiviral activity against HIV-1 IIIB infected in human C8166 cells assessed as reduction in virus-induced cytopathic effect incubated for 3 days by MTT assay; assay type: functional, organism-based; settings: Human immunodeficiency virus 1, IIIB, C8166, 72 h
[26] = system: Human immunodeficiency virus 1; assay: Antiviral […] activity against HIV-1 A17 harboring reverse transcriptase K103N/Y181C double mutant infected in human C8166 cells assessed as reduction in virus-induced cytopathic effect incubated for 3 days by MTT assay; assay type: functional, organism-based; settings: Human immunodeficiency virus 1, A17, C8166, 72 h
[27] = molecular target: T1, Human immunodeficiency virus type 1 reverse transcriptase; assay: Binding affinity to wild type HIV-1 reverse transcriptase assessed as inhibition constant
Reverse transcriptase = Reverse transcriptase (Human immunodeficiency virus 1, UniProt Q9WKE8, K103N); assay: Binding affinity to HIV-1 reverse transcriptase K103N mutant assessed as inhibition constant
[28] = system: Human immunodeficiency virus 1; assay: Antiviral activity against wild type HIV-1 NL4-3 infected in human MT4 cells assessed as reduction in viral replication measured for 72 hrs by ELISA analysis; assay type: functional, organism-based; settings: Human immunodeficiency virus 1, NL4-3, MT4, 72 h
Hepatitis B virus = assay: Antiviral activity against Hepatitis B virus infected in human HepG2.2.15 cells assessed as inhibition of HBV DNA production by qRT-PCR analysis; assay type: functional, organism-based
Bacillus subtilis = assay: Antibacterial activity against Bacillus subtilis; assay type: functional
Staphylococcus aureus = assay: Antibacterial activity against Staphylococcus aureus; assay type: functional
dengue virus type 3 = assay: Antiviral activity Dengue virus 3; assay type: functional, organism-based
dengue virus type 4 = assay: Antiviral activity Dengue virus 4; assay type: functional, organism-based
[29] = Cytotoxicity against African green monkey Vero cells; assay type: toxicity, cell-based; settings: chlorocebus sabaeus
dengue virus type 2 = assay: Antiviral activity Dengue virus 2; assay type: functional, organism-based
dengue virus type 1 = assay: Antiviral activity Dengue virus 1; assay type: functional, organism-based
[30] = Inhibition of HIV-1 Reverse transcriptase G190S mutant; design: species or system Human immunodeficiency virus 1
Rubella virus = assay: Antiviral activity against Rubella virus infected in Vero cells assessed as reduction in viral growth incubated for 96 hrs by plaque assay; assay type: functional, organism-based
Sindbis virus = assay: Antiviral activity against Sindbis virus infected in Vero cells assessed as reduction in viral growth incubated for 96 hrs by plaque assay; assay type: functional, organism-based
[31] = system: Vesicular stomatitis virus; assay: Antiviral activity against Vesicular stomatitis virus infected in Vero cells assessed as inhibition of cytopathic effect measured after 96 hrs by fluorescence based CPE reduction method; assay type: functional, organism-based
[32] = system: Human immunodeficiency virus 1; assay: Antiviral activity against HIV-1 harboring L100I mutant infected in human MT4 cells assessed as […]; assay type: functional, organism-based; settings: Human immunodeficiency virus 1, MT4
[33] = system: Human immunodeficiency virus 1; assay: Antiviral activity against HIV1 harboring K103N mutant infected in MT4 cells; assay type: functional, organism-based; settings: Human immunodeficiency virus 1, MT4

In the case of Nc1cc(Cl)nc(SCc2ccccc2)n1, the EC50 [1] is reported as 400 nM, the IC50 (MT2) is reported as > 16000 nM and the IC50 [2] is reported as > 16000 nM.

For CCc1c(CC2CCCCC2)nc(SCC(=O)c2ccccc2)[nH]c1=O, the EC50 [3] was 25 nM, the EC50 [4] was 709 nM and the CC50 (C8166) was > 100000 nM. The EC50 [5] was 5 nM, the EC50 [6] was 734 nM and the IC50 [7] was 440 nM. It also gave an EC50 [8] of 12 nM, an EC50 [9] of 241 nM and an EC50 [10] of 38900 nM. For the same molecule, the EC50 [11] was 2 nM, the CC50 [12] was > 100000 nM and the EC50 [13] was 8 nM. For the same molecule, the EC50 [14] was 41 nM, the CC50 (MT4) was > 100000 nM and the EC50 [15] was 7 nM. For the same molecule, the solubility [16] was 4 µg/mL (≈ 10.8 µM) and the EC50 [17] was 172 nM.

Work on C[C@H](Sc1nc(N)cc(Cl)n1)c1cc2ccoc2cn1 yielded an EC50 [18] of 77 nM, an EC50 [19] of 39 nM and an EC50 [20] of 179 nM.

In the case of CCc1c(CC2CCCCC2)nc(SCc2cc(-c3ccc(O)cc3)[nH]n2)[nH]c1=O, the EC50 [21] is reported as 48 nM, the EC50 [22] is reported as 4 nM and the EC50 [23] is reported as 14 nM. It also gave an EC50 [24] of 56 nM, an EC50 [25] of 3 nM and an EC50 [26] of 2770 nM.

Molecule Cc1c(C(C)c2c(F)cccc2Cl)nc(N(C)C)[nH]c1=O (stereo not drawn) has a Ki [27] of 17 nM, a Ki (Reverse transcriptase) of 750 nM and an EC50 [28] of 3 nM.

Molecule O=c1[nH]c(SC2O[C@H](CO)[C@H](O)[C@@H](O)[C@@H]2O)nc(Cc2ccccc2)c1Cc1ccccc1 (stereo partly drawn) has an EC50 (Hepatitis B virus) of 200 nM.

Work on Cc1ccc(-c2nc(S/C(=N/Nc3ccc(O)cc3)C(=O)c3ccc(Br)cc3)[nH]c(=O)c2C#N)cc1 yielded an MIC (Bacillus subtilis) of 1.17 µg/mL (≈ 2.09 µM) and an MIC (Staphylococcus aureus) of 0.19 µg/mL (≈ 0.339 µM).

With CCc1c(CC2CCCCC2)nc(SCc2n[nH]c(-c3ccc(F)c(F)c3)c2Cl)[nH]c1=O the EC50 (dengue virus type 3) was 7080 nM, the EC50 (dengue virus type 4) was 8910 nM and the CC50 [29] was > 200000 nM. It also gave an EC50 (dengue virus type 2) of 9230 nM and an EC50 (dengue virus type 1) of 1470 nM.

For N#Cc1c(-c2ccc(Br)cc2)nc(S/C(=N/Nc2ccc(O)cc2)C(=O)c2ccc(Br)cc2)[nH]c1=O, the MIC (Bacillus subtilis) was 2.34 µg/mL (≈ 3.74 µM) and the MIC (Staphylococcus aureus) was 1.17 µg/mL (≈ 1.87 µM).

Cc1cc(/C=C/C#N)cc(C)c1Nc1ncnc(Nc2ccc(C#N)cc2)n1 gave an IC50 [30] of 0.1 nM.

For CCN(CC)CCc1cc(=O)[nH]c(SC)n1, the IC50 (Rubella virus) was 3.9 µg/mL (≈ 16.2 µM), the IC50 (Sindbis virus) was 44.3 µg/mL (≈ 184 µM) and the IC50 [31] was 29 µg/mL (≈ 120 µM).

For O=c1cc(Cc2ccccc2)nc(NCCCCO)[nH]1, the EC50 [32] was 525000 nM and the EC50 [33] was 840000 nM.
